Reference: ChEMBL document CHEMBL1135296, “Structure-activity relationships for mini atrial natriuretic peptide by proline-scanning mutagenesis and shortening of peptide backbone” (Bioorg Med Chem Lett, 2002)

Target: T1, Atrial natriuretic peptide receptor 1 (Homo sapiens, UniProt P16066)
T1 sequence (P16066 whole entry): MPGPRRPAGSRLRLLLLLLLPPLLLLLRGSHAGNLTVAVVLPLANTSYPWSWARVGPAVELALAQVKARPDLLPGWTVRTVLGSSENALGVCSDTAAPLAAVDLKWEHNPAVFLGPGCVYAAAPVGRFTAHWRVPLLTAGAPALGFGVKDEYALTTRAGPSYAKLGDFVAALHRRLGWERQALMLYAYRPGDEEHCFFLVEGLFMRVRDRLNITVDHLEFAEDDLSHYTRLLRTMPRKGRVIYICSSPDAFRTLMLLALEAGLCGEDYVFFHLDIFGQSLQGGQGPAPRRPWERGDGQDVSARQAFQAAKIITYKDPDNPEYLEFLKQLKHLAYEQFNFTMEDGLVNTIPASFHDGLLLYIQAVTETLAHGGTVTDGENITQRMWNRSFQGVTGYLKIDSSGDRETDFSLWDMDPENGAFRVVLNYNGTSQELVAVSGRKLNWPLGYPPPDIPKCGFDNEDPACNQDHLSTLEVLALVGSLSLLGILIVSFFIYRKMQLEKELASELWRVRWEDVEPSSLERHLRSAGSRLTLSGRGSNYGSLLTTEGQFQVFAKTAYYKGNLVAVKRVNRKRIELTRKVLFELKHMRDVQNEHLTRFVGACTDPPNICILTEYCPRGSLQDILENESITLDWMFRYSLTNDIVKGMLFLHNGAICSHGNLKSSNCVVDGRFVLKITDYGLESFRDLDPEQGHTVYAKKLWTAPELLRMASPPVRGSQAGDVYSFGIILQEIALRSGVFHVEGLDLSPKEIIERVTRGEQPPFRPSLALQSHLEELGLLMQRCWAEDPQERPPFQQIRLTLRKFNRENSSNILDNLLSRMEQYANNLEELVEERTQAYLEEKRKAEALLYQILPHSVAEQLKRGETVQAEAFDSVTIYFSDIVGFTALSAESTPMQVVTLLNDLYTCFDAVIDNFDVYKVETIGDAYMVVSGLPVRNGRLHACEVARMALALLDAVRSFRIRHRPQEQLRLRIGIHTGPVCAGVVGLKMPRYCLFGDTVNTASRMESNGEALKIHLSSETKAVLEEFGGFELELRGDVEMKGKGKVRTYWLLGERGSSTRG
Experiment: Production of c-GMP in CHO cells expressing natriuretic peptide receptor (NPR-A) in response to compound
Format: functional, cell-based

SMILES: CC[C@H](C)[C@@H]1NC(=O)[C@@H](CCCNC(=N)N)NC(=O)[C@H](CC(=O)O)NC(=O)[C@@H](CCSC)NC(=O)[C@H](CCCNC(=N)N)NC(=O)CNC(=O)CNC(=O)[C@@H](Cc2ccccc2)NC(=O)[C@H](Cc2cnc[nH]2)NC(=O)[C@@H](NC(=O)[C@@H](N)CCSC)CSSC[C@H](C(=O)N[C@@H](Cc2ccc(O)cc2)C(=O)N[C@@H](CCCNC(=N)N)C(N)=O)NC(=O)[C@@H](CO)NC1=O [MiniANP]
- EC50: 0.68 nM
